Where a name gives a salt, the structure may show the parent alone.
What was measured:
solid tumors = conditions: cited from earlier work
[1] = test system: ADAR1 and MCL1 transcripts; experiment: Comparative in vivo study with fedratinib; design: species or system human cells in mice; conditions: twice daily oral 60 mg/kg, two weeks
Procedure: Additional aliquots of CD34+ cells from bone marrow and/or spleens of treated and control animals were used for serial transplantation assays after Rebecsinib treatment, including engraftment studies and overall survival assays. In a separate cohort of animals, mice were treated with Fedratinib for two weeks (twice daily oral delivery at 60 mg/kg) as a positive control for modulation of ADAR1 expression and activity.^8

MDA-MB-231 cells = experiment: IVIS total flux in MDA-MB-231 transplanted mice; assay type: in vivo, human cells in Rag2 neonatal mice; conditions: 0 day after completing the dosing plan; compared to vehicle control
From the text: FIG. 5 graphically illustrates IVIS (In Vivo Imaging System) results of ADAR1-MDA-MB-231 transplanted Rag2 mouse models, and IVIS images were taken at 6 weeks after transplant (FIG. 5A), after two weeks of therapy (FIG. 5B), and one week after therapy was completed (FIG. 5C), as discussed in further detail in Example 5, below.
Ten thousand (10k) MDA-MB-231 cells were intrahepatically transplanted into Rag2 neonatal mice, then treated with fedratinib, rebecsinib, or a combination of fedratinib and rebecsinib. IVIS images were taken at 6 weeks after transplant (FIG. 5A), after two weeks of therapy (FIG. 5B), and one week after therapy was completed (FIG. 5C). The IVIS signals from the mice were graphed by groups.
The IVIS images of these mice were taken at 0 day after completing the dosing plan and are graphed by their total flux.

hematologic malignancies = conditions: Phase 1, cited from earlier work

Molecule: CC[C@H](O)[C@@H](C)[C@H]1O[C@@H]1C[C@@](C)(O)/C=C/C=C(\C)[C@H]1OC(=O)C[C@H](O)CC[C@@](C)(O)[C@@H](OC(=O)N2CCN(C3CCCCCC3)CC2)/C=C/[C@@H]1C [E7107]
- reversible optic neuritis (solid tumors; patients with solid tumors): 2 of 26
- stability (solid tumors; related to optic neuritis): compound instability

Molecule: Cc1cnc(Nc2ccc(OCCN3CCCC3)cc2)nc1Nc1cccc(S(=O)(=O)NC(C)(C)C)c1 [fedratinib, N-tert-butyl-3-[(5-methyl2-{[4-(2-pyrrolidin-1-ylethoxy)phenyl]amino}pyrimidin-4-yl)amino]benzenesulfonamide dihydrochloride monohydrate]
- ADAR1 expression [1]: significantly reduced ADAR1 expression
- MCL1 splicing [1]: no alteration of MCL1 splicing
- total flux (IVIS) (MDA-MB-231 cells): significantly decreased

Molecule: H3B-8800
- durable remissions (hematologic malignancies): not sufficiently potent to induce durable remissions
- red blood transfusion independence (hematologic malignancies; efficacy dependent on SRSF2 mutations): red blood transfusion independence in some patients
